In BindingDB's records for doi:10.1021/acsmedchemlett.9b00051 (Ajinomoto, 2019) one finds EC50 data, which are given here for 25 molecules.

For orientation: EC50 means the concentration needed to bring the measured effect to its halfway point.

The nature of assay [1]: Positive allosteric modulator activity at human T1R2/T1R3 expressed in PEAKrapid cells assessed as potentiation of sucrose-induced intracellular calcium influx by measuring sucrose EC50 at 30 uM measured for 120 secs by fluorescence based assay (Rvb = 31.7 mM). (In general: Calcium flux is commonly read through the fluorescence of an indicator in the cells.)
Assay [2] is described as follows: Positive allosteric modulator activity at human T1R2/T1R3 expressed in PEAKrapid cells assessed as potentiation of sucrose-induced intracellular calcium influx by measuring sucrose EC50 at 50 uM measured for 120 secs by fluorescence based assay (Rvb = 31.7 mM).

Take `CC(=O)NCc1ccc(-c2cncc(C(=O)O)c2N)o1`: the EC50 in assay [1] was 27.1 mM.
The same measure, in the same setting: the same measure for `CC(C)[C@@H](CC(=O)Nc1cncc(C(=O)O)c1N)NC(=O)[C@@H](N)C1CCCCC1`: 18.4 mM; for `CC(C)CC(=O)NCc1ccc(-c2cncc(C(=O)O)c2N)o1`: 18.3 mM.
The same measure, in the same setting: the same measure for `Nc1c(C(=O)O)cncc1-c1ccc(CNC(=O)[C@@H](N)C2CCCCC2)o1`: 5.8 mM.
Still for that read-out and setting: under `Cc1nc2ccccc2c(N)c1C(=O)O` stands 15.9 mM; under `CC(C)(C)OC(=O)NCc1ccc(-c2cncc(C(=O)O)c2N)o1`, 24.5 mM; under `CC(C)CNC(=O)NCc1ccc(-c2cncc(C(=O)O)c2N)o1`, 21.6 mM.
On to `CC(C)C[C@H](N)C(=O)NCc1ccc(-c2cncc(C(=O)O)c2N)o1`, for which the EC50 in assay [1] was 11.1 mM.
As to `Nc1c(NC(=O)CCCNC(=O)[C@@H](N)C2CCCCC2)cncc1C(=O)O`, the EC50 in assay [1] was found to be 16.2 mM.
Still for that read-out and setting: under `Nc1c(NC(=O)CCCCNC(=O)[C@@H](N)C2CCCCC2)cncc1C(=O)O` stands 7.8 mM.
Same read-out and setting: the same measure for `C[C@@H](CC(=O)Nc1cncc(C(=O)O)c1N)NC(=O)[C@@H](N)C1CCCCC1`: 10.2 mM.
The same measure, in the same setting: the same measure for `CC(C)C[C@@H](CC(=O)Nc1cncc(C(=O)O)c1N)NC(=O)[C@@H](N)C1CCCCC1`: 22.7 mM; for `CC[C@H](C)[C@@H](CCC(=O)Nc1cncc(C(=O)O)c1N)NC(=O)[C@@H](N)C1CCCCC1`: 8.9 mM.
For the molecule `Nc1c(C(=O)O)cncc1-c1ccccc1`, the EC50 in assay [2] came out at 21.5 mM.
On the same count and under the same terms, under `Nc1c(C(=O)O)cncc1-c1cccs1` stands 21 mM.
On to `CC(C)C(=O)NCc1ccc(-c2cncc(C(=O)O)c2N)o1`, for which the EC50 in assay [1] was 22.1 mM.
On the same count and under the same terms, under `CC[C@H](C)[C@H](N)C(=O)NCc1ccc(-c2cncc(C(=O)O)c2N)o1` stands 10 mM.
In the case of `Nc1c(NC(=O)CC[C@H](Cc2ccccc2)NC(=O)[C@@H](N)C2CCCCC2)cncc1C(=O)O`, the EC50 in assay [1] was 8.5 mM.
The same measure, in the same setting: the same measure for `CC(C)CNC(=O)C(=O)NCc1ccc(-c2cncc(C(=O)O)c2N)o1`: 26.5 mM; for `Cc1nc2cccc(OCC(C)(C)C(=O)NC(C)C)c2c(N)c1C(=O)O`: 0.6 mM.
On to `CC(C)[C@H](N)C(=O)NCc1ccc(-c2cncc(C(=O)O)c2N)o1`, for which the EC50 in assay [1] worked out at 14.6 mM.
For `Nc1c(NC(=O)CCCCCCNC(=O)[C@@H](N)C2CCCCC2)cncc1C(=O)O`, the EC50 in assay [1] stood at 20.2 mM.
With `Nc1c(C(=O)O)cncc1-c1ccco1`, the half-maximal effective concentration (EC50) in assay [2] stood at 16.8 mM.
Regarding `CC(C)(CC(=O)Nc1cncc(C(=O)O)c1N)NC(=O)[C@@H](N)C1CCCCC1`, the EC50 in assay [1] was determined as 2.2 mM.
The same measure, in the same setting: the same measure for `CC(C)[C@@H](CCC(=O)Nc1cncc(C(=O)O)c1N)NC(=O)[C@@H](N)C1CCCCC1`: 10.5 mM.
